Experiment: Part 2 (MAD): plasma pharmacokinetics after BID oral KAR5585 for 14 days (incl. accumulation ratios and dose proportionality)
[1] = KAR5585 200 mg BID fed, Cohort 3, Day 1 PM, mean
[2] = KAR5585 200 mg BID fed, Cohort 3, Day 7 AM, Day 7/Day 1 accumulation ratio, geo. mean
[3] = KAR5585 200 mg BID fed, Cohort 3, Day 7 AM, Day 7/Day 1 accumulation ratio, mean
[4] = KAR5585 200 mg BID fed, Cohort 3, Day 7 AM, geo. mean
[5] = KAR5585 200 mg BID fed, Cohort 3, Day 7 AM, mean
[6] = KAR5585 200 mg BID fed, Cohort 3, Day 7 PM, Day 7/Day 1 accumulation ratio, geo. mean
[7] = KAR5585 200 mg BID fed, Cohort 3, Day 7 PM, Day 7/Day 1 accumulation ratio, mean
[8] = KAR5585 200 mg BID fed, Cohort 3, Day 7 PM, geo. mean
[9] = KAR5585 200 mg BID fed, Cohort 3, Day 7 PM, mean
[10] = KAR5585 200 mg BID fed, Cohort 3, Day 14 AM, Day 14/Day 1 accumulation ratio, geo. mean
[11] = KAR5585 200 mg BID fed, Cohort 3, Day 14 AM, Day 14/Day 1 accumulation ratio, mean
[12] = KAR5585 200 mg BID fed, Cohort 3, Day 14 AM, geo. mean
[13] = KAR5585 200 mg BID fed, Cohort 3, Day 14 AM, mean
[14] = KAR5585 400 mg BID fed, Cohort 4, Day 1 AM, geo. mean
[15] = KAR5585 400 mg BID fed, Cohort 4, Day 1 AM, mean
[16] = KAR5585 400 mg BID fed, Cohort 4, Day 1 PM, geo. mean
[17] = KAR5585 400 mg BID fed, Cohort 4, Day 1 PM, mean
[18] = KAR5585 400 mg BID fed, Cohort 4, Day 7 AM, Day 7/Day 1 accumulation ratio, geo. mean
[19] = KAR5585 400 mg BID fed, Cohort 4, Day 7 AM, Day 7/Day 1 accumulation ratio, mean
[20] = KAR5585 400 mg BID fed, Cohort 4, Day 7 AM, geo. mean
[21] = KAR5585 400 mg BID fed, Cohort 4, Day 7 AM, mean
[22] = KAR5585 400 mg BID fed, Cohort 4, Day 7 PM, Day 7/Day 1 accumulation ratio, geo. mean
[23] = KAR5585 400 mg BID fed, Cohort 4, Day 7 PM, Day 7/Day 1 accumulation ratio, mean
[24] = KAR5585 400 mg BID fed, Cohort 4, Day 7 PM, geo. mean
[25] = KAR5585 400 mg BID fed, Cohort 4, Day 7 PM, mean
[26] = KAR5585 400 mg BID fed, Cohort 4, Day 14 AM, Day 14/Day 1 accumulation ratio, geo. mean
[27] = KAR5585 400 mg BID fed, Cohort 4, Day 14 AM, Day 14/Day 1 accumulation ratio, mean
[28] = KAR5585 400 mg BID fed, Cohort 4, Day 14 AM, geo. mean
[29] = KAR5585 400 mg BID fed, Cohort 4, Day 14 AM, mean
[30] = power model, PK Day 1 (AM), 100 to 400 mg KAR5585 repeat oral doses, fed
[31] = power model, PK Day 7 (AM), 100 to 400 mg KAR5585 repeat oral doses, fed
[32] = power model, PK Day 14 (AM), 100 to 400 mg KAR5585 repeat oral doses, fed

Excerpt: Food effect was to be evaluated in Part 1, Period 2.
Pharmacokinetic data were to be summarized descriptively.

Structure (SMILES): Nc1nc(O[C@H](c2ccc(Cl)cc2-c2ccccc2)C(F)(F)F)cc(N2CCC3(CC2)CN[C@H](C(=O)O)C3)n1 [KAR5417, (S)-8-(2-amino-6-((R)-1-(5-chloro-[1,1T-biphenyl]-2-yl)-2,2,2-trifluoroeth-oxy)pyrimidin-4-yl)-2,8-diazaspiro[4.5]decane-3-carboxylic acid]
- t1/2 (KAR5585 200 mg BID fed, Cohort 3, Day 1 PM, geo. mean): 5.95 h
- AUC0-12 [1]: 2000 ng·h/mL
- AUC0-24 [1]: 3700 ng·h/mL
- AUC0-24/D [1]: 9.26 (hr*ng/ml)/mg
- AUC0-∞ [1]: 2720 ng·h/mL
- C12 [1]: 112 ng/mL
- Cmax [1]: 322 ng/mL
- Cmax/D [1]: 1.61 (ng/ml)/mg
- t1/2 [1]: 6.03 h
- Tmax (KAR5585 200 mg BID fed, Cohort 3, Day 1 PM, median): 4.0 h
- RAUC0-12 [2]: 1.33
- RCmax [2]: 0.989
- RAUC0-12 [3]: 1.34
- RCmax [3]: 1.00
- AUC0-12 [4]: 2150 ng·h/mL
- AUC0-∞ [4]: 2610 ng·h/mL
- C12 [4]: 87.2 ng/mL
- Cmax [4]: 332 ng/mL
- Cmax/D [4]: 1.66 (ng/ml)/mg
- t1/2 [4]: 4.57 h
- AUC0-12 [5]: 2300 ng·h/mL
- AUC0-∞ [5]: 2800 ng·h/mL
- C12 [5]: 93.1 ng/mL
- Cmax [5]: 359 ng/mL
- Cmax/D [5]: 1.80 (ng/ml)/mg
- t1/2 [5]: 4.61 h
- RAUC0-12 [6]: 0.955
- RCmax [6]: 0.645
- RAUC0-12 [7]: 0.984
- RCmax [7]: 0.711
- AUC0-12 [8]: 1490 ng·h/mL
- AUC0-24 [8]: 3620 ng·h/mL
- AUC0-24/D [8]: 9.05 (hr*ng/ml)/mg
- AUC0-∞ [8]: 2270 ng·h/mL
- C12 [8]: 131 ng/mL
- Cmax [8]: 212 ng/mL
- Cmax/D [8]: 1.06 (ng/ml)/mg
- t1/2 [8]: 6.48 h
- AUC0-12 [9]: 1540 ng·h/mL
- AUC0-24 [9]: 3810 ng·h/mL
- AUC0-24/D [9]: 9.52 (hr*ng/ml)/mg
- AUC0-∞ [9]: 2280 ng·h/mL
- C12 [9]: 145 ng/mL
- Cmax/D [9]: 1.11 (ng/ml)/mg
- t1/2 [9]: 6.64 h
- RAUC0-12 [10]: 1.07
- RCmax [10]: 0.854
- RAUC0-12 [11]: 1.09
- RCmax [11]: 0.901
- AUC0-12 [12]: 1670 ng·h/mL
- AUC0-24 [12]: 2200 ng·h/mL
- AUC0-∞ [12]: 3250 ng·h/mL
- C12 [12]: 59.6 ng/mL
- Cmax [12]: 281 ng/mL
- Cmax/D [12]: 1.40 (ng/ml)/mg
- t1/2 [12]: 24.1 h
- AUC0-12 [13]: 1820 ng·h/mL
- AUC0-24 [13]: 2380 ng·h/mL
- AUC0-∞ [13]: 3480 ng·h/mL
- C12 [13]: 63.5 ng/mL
- C24 [13]: 32.6 ng/mL
- Cmax [13]: 319 ng/mL
- Cmax/D [13]: 1.59 (ng/ml)/mg
- t1/2 [13]: 25.0 h
- AUC0-12 [14]: 2920 ng·h/mL
- AUC0-∞ [14]: 3400 ng·h/mL
- C12 [14]: 90.2 ng/mL
- Cmax [14]: 532 ng/mL
- Cmax/D [14]: 1.33 (ng/ml)/mg
- t1/2 [14]: 3.71 h
- AUC0-12 [15]: 3280 ng·h/mL
- AUC0-∞ [15]: 3780 ng·h/mL
- C12 [15]: 99.3 ng/mL
- Cmax [15]: 595 ng/mL
- Cmax/D [15]: 1.49 (ng/ml)/mg
- t1/2 [15]: 3.80 h
- AUC0-12 [16]: 4340 ng·h/mL
- AUC0-24 [16]: 7430 ng·h/mL
- AUC0-24/D [16]: 9.28 (hr*ng/ml)/mg
- AUC0-∞ [16]: 6860 ng·h/mL
- C12 [16]: 242 ng/mL
- Cmax [16]: 670 ng/mL
- Cmax/D [16]: 1.68 (ng/ml)/mg
- t1/2 [16]: 5.3 h
- AUC0-12 [17]: 4590 ng·h/mL
- AUC0-24 [17]: 7870 ng·h/mL
- AUC0-24/D [17]: 9.83 (hr*ng/ml)/mg
- AUC0-∞ [17]: 7090 ng·h/mL
- C12 [17]: 252 ng/mL
- Cmax [17]: 739 ng/mL
- Cmax/D [17]: 1.85 (ng/ml)/mg
- t1/2 [17]: 5.31 h
- RAUC0-12 [18]: 2.15
- RCmax [18]: 1.81
- RAUC0-12 [19]: 2.38
- RCmax [19]: 2.00
- AUC0-12 [20]: 6250 ng·h/mL
- AUC0-∞ [20]: 7480 ng·h/mL
- C12 [20]: 222 ng/mL
- Cmax [20]: 960 ng/mL
- Cmax/D [20]: 2.40 (ng/ml)/mg
- t1/2 [20]: 3.89 h
- AUC0-12 [21]: 6600 ng·h/mL
- AUC0-∞ [21]: 7840 ng·h/mL
- C12 [21]: 240 ng/mL
- Cmax [21]: 1000 ng/mL
- Cmax/D [21]: 2.51 (ng/ml)/mg
- t1/2 [21]: 3.94 h
- RAUC0-12 [22]: 1.50
- RCmax [22]: 1.08
- RAUC0-12 [23]: 1.63
- RCmax [23]: 1.18
- AUC0-12 [24]: 4360 ng·h/mL
- AUC0-24 [24]: 10600 ng·h/mL
- AUC0-24/D [24]: 13.3 (hr*ng/ml)/mg
- AUC0-∞ [24]: 6450 ng·h/mL
- C12 [24]: 356 ng/mL
- Cmax [24]: 574 ng/mL
- Cmax/D [24]: 1.44 (ng/ml)/mg
- t1/2 [24]: 5.08 h
- AUC0-12 [25]: 4610 ng·h/mL
- AUC0-24 [25]: 11200 ng·h/mL
- AUC0-24/D [25]: 14.0 (hr*ng/ml)/mg
- AUC0-∞ [25]: 6520 ng·h/mL
- C12 [25]: 396 ng/mL
- Cmax/D [25]: 1.52 (ng/ml)/mg
- t1/2 [25]: 5.10 h
- RAUC0-12 [26]: 1.43
- RCmax [26]: 1.35
- RAUC0-12 [27]: 1.65
- RCmax [27]: 1.54
- AUC0-12 [28]: 4160 ng·h/mL
- AUC0-24 [28]: 5410 ng·h/mL
- AUC0-24/D [28]: 13.5 (hr*ng/ml)/mg
- AUC0-∞ [28]: 8120 ng·h/mL
- C12 [28]: 140 ng/mL
- C24 [28]: 73.3 ng/mL
- Cmax [28]: 717 ng/mL
- Cmax/D [28]: 1.79 (ng/ml)/mg
- t1/2 [28]: 30.4 h
- AUC0-24 [29]: 5660 ng·h/mL
- AUC0-24/D [29]: 14.1 (hr*ng/ml)/mg
- AUC0-∞ [29]: 8500 ng·h/mL
- C12 [29]: 149 ng/mL
- Cmax [29]: 749 ng/mL
- Cmax/D [29]: 1.87 (ng/ml)/mg
- t1/2 [29]: 30.6 h
- Dose proportionality analysis, AUC0-12: Intercept estimate [30]: 0.828
- Dose proportionality analysis, AUC0-inf: Intercept estimate [30]: 1.12
- Dose proportionality analysis, Cmax: Intercept estimate [30]: 0.167
- Dose proportionality analysis, AUC0-12: Intercept estimate [31]: 2.63
- Dose proportionality analysis, Cmax: Intercept estimate [31]: 0.393
- Dose proportionality analysis, AUC0-12: Intercept estimate [32]: 5.18
- Dose proportionality analysis, Cmax: Intercept estimate [32]: 0.877
